Each molecule was assayed against T1, Replicase polyprotein 1ab (Severe acute respiratory syndrome coronavirus 2, UniProt P0DTD1) (assay: Inhibition of SARS-CoV-2 papain-like protease (PLpro) extracted from Escherichia coli BL21 (DE3) cells using RLRGG-AMC as substrate preincubated for 10 mins followed by substrate addition measured for 35 mins by FRET analysis).

Compound	IC50
Cc1ccc(NC(=O)[C@@]2(C)CCCN2)cc1C(=O)N[C@H](C)c1cccc2ccccc12	1800 nM
Cc1ccc(NCC(C)(C)N)cc1C(=O)N[C@H](C)c1cccc2ccccc12	1800 nM
Cc1ccc(NC(=O)[C@@H](N)CCN)cc1C(=O)N[C@H](C)c1cccc2ccccc12	1900 nM
Cc1ccc(NC(=O)CN2CCCCC2)cc1C(=O)N[C@H](C)c1cccc2ccccc12	1800 nM
Cc1ccc(NC(=O)C2CCN2)cc1C(=O)N[C@H](C)c1cccc2ccccc12 (mixture of isomers)	1800 nM
Cc1ccc(NC(=O)C2CN(C)CCN2C)cc1C(=O)N[C@H](C)c1cccc2ccccc12 (mixture of isomers)	1700 nM
Cc1ccc(NC2CCN(C[C@H]3CCCN3)CC2)cc1C(=O)N[C@H](C)c1cccc2ccccc12	1800 nM
Cc1ccc(NC2CCN(S(C)(=O)=O)CC2)cc1C(=O)N[C@H](C)c1cccc2ccccc12	1900 nM
Cc1ccc(NC(=O)[C@@H](CN)NC[C@@H]2CCCN2)cc1C(=O)N[C@H](C)c1cccc2ccccc12	1900 nM
Cc1ccc(NC(=O)CCN)cc1C(=O)N[C@H](C)c1cccc2ccccc12	1800 nM

Each molecule was assayed against T1, Replicase polyprotein 1ab (assay: Inhibition of SARS-CoV2 PLpro extracted from Escherichia coli using Z-RLRGG-AMC as substrate incubated for 30 mins by fluorescence based analysis).

Compound	IC50
Cc1ccc(Nc2ccncc2)cc1C(=O)N[C@H](C)c1cccc2ccccc12	1700 nM
Cc1ccc(NC(=O)N2CCCN(C)CC2)cc1C(=O)N[C@H](C)c1cccc2ccccc12	1500 nM
Cc1ccc(NC(=O)[C@@H](N)CCCCN)cc1C(=O)N[C@H](C)c1cccc2ccccc12	1700 nM
Cc1ccc(NC(=O)C2CN(C)CCN2)cc1C(=O)N[C@H](C)c1cccc2ccccc12 (mixture of isomers)	1700 nM
Cc1ccc(NCC2CCNC2)cc1C(=O)N[C@H](C)c1cccc2ccccc12 (mixture of isomers)	1500 nM
Cc1ccc(NC(=O)[C@@H](N)CN)cc1C(=O)N[C@H](C)c1cccc2ccccc12	1600 nM
Cc1ccc(NC(=O)C2CN(C)C2)cc1C(=O)N[C@H](C)c1cccc2ccccc12	1550 nM
CNCCCNc1ccc(C)c(C(=O)N[C@H](C)c2cccc3ccccc23)c1	1500 nM
Cc1ccc(NC(=O)N2CCN(C)CC2)cc1C(=O)N[C@H](C)c1cccc2ccccc12	1600 nM

Each molecule was assayed against T1, Replicase polyprotein 1ab (assay: Inhibition of SARS-CoV-2 papain-like protease (PLpro) by FRET analysis).

Compound	IC50
Cc1ccc(NC(=O)CN(C)C)cc1C(=O)N[C@H](C)c1cc(-c2cccs2)cc(-c2cccs2)c1	110 nM
Cc1ccc(NC2CNC2)cc1C(=O)N[C@H](C)c1cc(-c2cccs2)cc(-c2cccs2)c1	171 nM
Cc1ccc(OCC[N+](C)(C)C)cc1C(=O)N[C@H](C)c1cc(-c2cccs2)cc(-c2cccs2)c1	130 nM
Cc1ccc(NC(=O)CN)cc1C(=O)N[C@H](C)c1cc(-c2cccs2)cc(-c2cccs2)c1	140 nM
Cc1ccc(N)cc1C(=O)N[C@H](C)c1cc(-c2cccs2)cc(-c2cccs2)c1	170 nM
Cc1ccc(OCCN2CCCC2)cc1C(=O)N[C@H](C)c1cc(-c2cccs2)cc(-c2cccs2)c1	70 nM
Cc1ccc(NCC2CNC2)cc1C(=O)N[C@H](C)c1cc(-c2cccs2)cc(-c2cccs2)c1	340 nM
Cc1ccc(OCCN)cc1C(=O)N[C@H](C)c1cc(-c2cccs2)cc(-c2cccs2)c1	60 nM
Cc1ccc(NCCN2CCCCC2)cc1C(=O)N[C@H](C)c1cc(-c2cccs2)cc(-c2cccs2)c1	110 nM
Cc1ccc(NC2CCN(C)CC2)cc1C(=O)N[C@H](C)c1cc(-c2cccs2)cc(-c2cccs2)c1	180 nM
Cc1ccc(OCCN2CCOCC2)cc1C(=O)N[C@H](C)c1cc(-c2cccs2)cc(-c2cccs2)c1	360 nM
Cc1ccc(NC(=O)C2CCNCC2)cc1C(=O)N[C@H](C)c1cc(-c2cccs2)cc(-c2cccs2)c1	163 nM

These molecules were tested against T1, Replicase polyprotein 1ab (assay: Inhibition of SARS-CoV-2 Main protease extracted from Escherichia coli BL21 (DE3) cells measured for 60 mins by FRET based analysis).

Compound	IC50
Cc1ccc(NC[C@@]2(C)CCCN2)cc1C(=O)N[C@H](C)c1cccc2ccccc12	1100 nM
Cc1ccc(NC(=O)[C@H]2CCCN2)cc1C(=O)N[C@H](C)c1cccc2ccccc12	1400 nM
Cc1ccc(NC[C@@H](N)CNC[C@H]2CCCN2)cc1C(=O)N[C@H](C)c1cccc2ccccc12	1100 nM

What follows are molecules tested against T1, Replicase polyprotein 1ab (assay: Inhibition of SARS-CoV-2 3CL protease extracted from Escherichia coli BL21 (DE3) Rosetta cells using DabcylKNSTLQSGLRKE-Edan as substrate preincubated for 60 mins followed by substrate addition and measured after 20 mins by FRET assay).

Compound	IC50
CCC(C(=O)Nc1cc(NC2CCOCC2)ccc1C)n1cccc2nc(SCc3ccc(F)cc3)nc1-2 (racemic)	600 nM
CCC(C(=O)Nc1cc(NC2COC2)ccc1C)n1cccc2nc(SCc3ccc(F)cc3)nc1-2 (racemic)	300 nM
CCC(C(=O)Nc1cc(NC2CCOC2)ccc1C)n1cc(Cl)cc2nc(SCc3ccc(F)cc3)nc1-2 (racemic)	160 nM
CCC(C(=O)Nc1cc(NC2CCOCC2)ccc1C)n1cc(F)cc2nc(SCc3ccc(F)cc3)nc1-2 (racemic)	1400 nM
CCC(C(=O)Nc1ccccc1C)n1cc(F)cc2nc(SCc3ccc(F)cc3)nc1-2 (racemic)	5090 nM
CCC(C(=O)Nc1cc(NC2CCOC2)ccc1C)n1cc(F)cc2nc(SCc3ccc(F)cc3)nc1-2 (racemic)	1860 nM

Each molecule was assayed against T1, Replicase polyprotein 1ab (assay: Inhibition of SARS-CoV-2 Main protease).

Compound	IC50
Cc1ccc(NC(N)=O)cc1C(=O)N[C@H](C)c1cccc2ccccc12	3800 nM
Cc1ccc(NC(=O)[C@H]2CCCCN2)cc1C(=O)N[C@H](C)c1cccc2ccccc12	300 nM
Cc1ccc(NC[C@@H]2CCCCN2)cc1C(=O)N[C@H](C)c1cccc2ccccc12	900 nM
Cc1ccc(NCC2CCN2)cc1C(=O)N[C@H](C)c1cccc2ccccc12 (mixture of isomers)	900 nM
Cc1ccc(NC[C@H]2CCCCN2)cc1C(=O)N[C@H](C)c1cccc2ccccc12	1400 nM
Cc1ccc(NC[C@@H]2CCCN2C)cc1C(=O)N[C@H](C)c1cccc2ccccc12	900 nM
Cc1ccc(NC[C@@H]2CCCN2)cc1C(=O)N[C@H](C)c1cccc2ccccc12	800 nM
Cc1ccc(NC(=O)C2(N)CC2)cc1C(=O)N[C@H](C)c1cccc2ccccc12	3800 nM
Cc1ccc(NC(=O)[C@@H]2CCCCN2)cc1C(=O)N[C@H](C)c1cccc2ccccc12	1300 nM
Cc1ccc(NC[C@H]2CCCN2)cc1C(=O)N[C@H](C)c1cccc2ccccc12	900 nM
Cc1ccc(NC(=O)CN)cc1C(=O)N[C@H](C)c1cccc2ccccc12	3300 nM

What follows are molecules tested against T1, Replicase polyprotein 1ab (assay: Inhibition of SARS-CoV-2 papain-like protease).

Compound	IC50
Cc1ccc(N2CCNCC2)cc1C(=O)NC1(c2cccc3ccccc23)CC1	30 nM
Cc1ccc(N2CCN(CCC(=O)O)CC2)cc1C(=O)NC1(c2cccc3ccccc23)CC1	110 nM
Cc1ccc(N2CCNC(C)C2)cc1C(=O)NC1(c2cccc3ccccc23)CC1 (centres undefined)	70 nM
Cc1ccc(N2CCN(C(=N)N)CC2)cc1C(=O)NC1(c2cccc3ccccc23)CC1	140 nM
CC(=O)Nc1cccc(Nc2ccc(C)c(C(=O)NC3(c4cccc5ccccc45)CC3)c2)c1	500 nM
Cc1ccc(N2CC3CNCC3C2)cc1C(=O)NC1(c2cccc3ccccc23)CC1 (centres undefined)	30 nM
Cc1ccccc1C(=O)NC(C)c1cccc2ccccc12 (racemic)	23500 nM
Cc1ccc(N)cc1C(=O)NC1(c2cccc3ccccc23)CC1	180 nM
Cc1ccc(N2CCN(C)CC2)cc1C(=O)NC1(c2cccc3ccccc23)CC1	20 nM
Cc1ccc(N2C[C@H]3C[C@@H](C2)N3)cc1C(=O)NC1(c2cccc3ccccc23)CC1	20 nM
Cc1ccc(N2CC3CN(C)CC3C2)cc1C(=O)NC1(c2cccc3ccccc23)CC1 (centres undefined)	130 nM
Cc1ccc(N2CCN(CC(=O)O)CC2)cc1C(=O)NC1(c2cccc3ccccc23)CC1	40 nM
C#CC(=O)NNC(=O)CCc1ccccc1C(=O)N[C@H](C)c1cccc2ccccc12	90 nM

What follows are molecules tested against T1, Replicase polyprotein 1ab (assay: Binding affinity to SARS-CoV-2 papain-like protease extracted from Escherichia coli BL21 (DE3) cells assessed as inhibition constant by SPR analysis).

Compound	Ki
Cc1ccc(OCCN(C)C)cc1C(=O)N[C@H](C)c1cc(-c2cnn(C)c2)cc(-c2ccn(C)n2)c1	40 nM
Cc1ccc(OCCN(C)C)cc1C(=O)N[C@H](C)c1cc(-c2cnn(CCN3CCOCC3)c2)cc(-c2ccn(C)n2)c1	40 nM
Cc1ccc(OCCN(C)C)cc1C(=O)N[C@H](C)c1cc(-c2cnn(C)c2)cc(-c2cnn(C(F)F)c2)c1	30 nM
Cc1ccc(OCCN(C)C)cc1C(=O)N[C@H](C)c1cc(-c2cnn(C)c2)cc(-c2cncs2)c1	30 nM
Cc1ccc(OCCN(C)C)cc1C(=O)N[C@H](C)c1cc(-c2cnn(C)c2)cc(-c2cnn(C3CC3)c2)c1	30 nM
Cc1ccc(OCCN(C)C)cc1C(=O)N[C@H](C)c1cc(-c2cccs2)cc(-c2ccc(CN)s2)c1	70 nM
Cc1ccc(OCCN(C)C)cc1C(=O)N[C@H](C)c1cc(-c2cnn(C)c2)cc(-c2cnn(C(C)C)c2)c1	40 nM
COCn1cc(-c2cc(-c3cnn(C(F)F)c3)cc([C@@H](C)NC(=O)c3cc(OCCN(C)C)ccc3C)c2)cn1	80 nM
Cc1ccc(OCCN(C)C)cc1C(=O)N[C@H](C)c1cc(-c2cnn(C)c2)cc(-c2cnn(CCN3CCOCC3)c2)c1	20 nM
Cc1ccc(OCCN(C)C)cc1C(=O)N[C@H](C)c1cc(-c2cnn(CF)c2)cc(-c2ccn(C)n2)c1	30 nM

Reference: ChEMBL document CHEMBL6092147, “Design of inhibitors of SARS-CoV-2 papain-like protease deriving from GRL0617: Structure-activity relationships” (Bioorg Med Chem, 2024)
